The values below come from US20220402950A1, “SUBSTITUTED BENZIMIDAZOLES AS PAD4 INHIBITORS” (BRISTOL-MYERS SQUIBB COMPANY, priority 2018, published 2022).

In this test the target is human PAD4 (hPAD4) (Homo sapiens, UniProt Q9UM07). Put plainly: RFMS Human PAD4 Functional Assay. The class given is biochemical. As to conditions: 5 nM hPAD4, 250 μM BAEE. An outline of the steps:
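RapidFire ESI-MS quantification, normalised to a modified-citrulline internal standard, after phenyl glyoxal (final 4 mM) derivatisation of the TCA-quenched reaction. The enzyme (10 nM) sat 30 min with compound (up to 50 μM final) before 500 μM BAEE (as added) started a 90 min, 37 °C reaction. Buffer: HEPES pH 7.5, 50 μM calcium, 5 μM TPEN.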

[1] abbreviates: hPAD4 RFMS IC50, human PAD4, rapid-fire mass spectrum (RFMS) assay.
Where [2] appears, read: human PAD4, rapid-fire mass spectrum (RFMS) assay, read-out: hPAD4 RFMS IC50.

Where two headings read alike, the source gives them in different places.

human PAD4 (hPAD4), sequence (Q9UM07 whole entry): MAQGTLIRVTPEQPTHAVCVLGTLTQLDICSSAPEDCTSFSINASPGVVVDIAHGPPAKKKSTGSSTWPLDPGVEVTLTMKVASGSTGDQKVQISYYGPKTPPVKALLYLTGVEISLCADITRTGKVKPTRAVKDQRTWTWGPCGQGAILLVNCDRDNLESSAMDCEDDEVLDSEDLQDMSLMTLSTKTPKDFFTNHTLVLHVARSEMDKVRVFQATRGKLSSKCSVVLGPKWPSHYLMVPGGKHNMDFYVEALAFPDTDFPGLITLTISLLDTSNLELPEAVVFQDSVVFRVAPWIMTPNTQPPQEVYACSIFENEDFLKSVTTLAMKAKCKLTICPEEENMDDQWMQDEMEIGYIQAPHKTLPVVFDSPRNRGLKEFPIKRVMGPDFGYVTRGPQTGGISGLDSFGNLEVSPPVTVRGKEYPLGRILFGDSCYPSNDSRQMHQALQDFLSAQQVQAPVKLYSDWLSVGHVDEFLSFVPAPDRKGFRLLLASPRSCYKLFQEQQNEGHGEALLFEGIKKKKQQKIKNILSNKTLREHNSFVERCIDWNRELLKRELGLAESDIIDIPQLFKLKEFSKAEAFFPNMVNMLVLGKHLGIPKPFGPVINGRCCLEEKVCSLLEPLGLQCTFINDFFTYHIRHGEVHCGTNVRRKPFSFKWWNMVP

As a reminder, the IC50 is the concentration at which inhibition is half-maximal. On to `COc1cc(C(=O)N2C[C@H]3CC[C@@H]2[C@@H]3N)cc2nc(-c3cc4cccc(C5CN(C(=O)Nc6ccccc6)C5)c4n3CC3CC3)n(C)c12` [Example 228, 3-(2-(5-((1R,4R,7R)-7-amino-2-azabicyclo[2.2.1]heptane-2-carbonyl)-7-methoxy-1-methyl-1H-benzo[d]imidazol-2-yl)-1-(cyclopropylmethyl)-1H-indol-7-yl)-N-phenylazetidine-1-carboxamide], for which 41 nM corresponded to half-maximal inhibition under setting [1] (IC50).
With `COc1cc(C(=O)N2C[C@H]3CC[C@@H]2[C@@H]3N)cc2nc(-c3cc4cccc(-c5ccccc5)c4n3CC3CC3)n(C)c12` [compound 186], the IC50 under setting [2] is 299 nM.
In turn, `COc1cc(C(=O)N2C[C@H]3CC[C@@H]2[C@@H]3N)cc2nc(-c3cc4cccc(-c5ccc(C(N)=O)cc5)c4n3CC3CC3)n(C)c12` [Example 124, 4-(2-(5-((1R,4R,7R)-7-amino-2-azabicyclo[2.2.1]heptane-2-carbonyl)-7-methoxy-1-methyl-1H-benzo[d]imidazol-2-yl)-1-(cyclopropylmethyl)-1H-indol-7-yl)benzamide] came in with an IC50 under setting [1] of 25 nM.
Still for that read-out and setting: the value for `COCC(=O)N1CCC(c2cccc3cc(-c4nc5cc(C(=O)N6C[C@H]7CC[C@@H]6[C@@H]7N)cc(OC)c5n4C)n(CC4CC4)c23)CC1` [Example 230, 1-(4-(2-(5-((1R,4R,7R)-7-amino-2-azabicyclo[2.2.1]heptane-2-carbonyl)-7-methoxy-1-methyl-1H-benzo[d]imidazol-2-yl)-1-(cyclopropylmethyl)-1H-indol-7-yl)piperidin-1-yl)-2-methoxyethan-1-one] was 21 nM; that for `COc1cc(C(=O)N2C[C@H]3CC[C@@H]2[C@@H]3N)cc2nc(-c3cc4cccc(C5CC(C(=O)N6CCCC6)C5)c4n3CC3CC3)n(C)c12` (single isomer, unassigned) [Example 50] was 81 nM; that for `COc1cc(C(=O)N2CC3CCC2[C@@H]3N)cc2nc(-c3cc4cccc(-c5ccoc5)c4n3CC3CC3)n(C)c12` (stereo partly drawn) [Example 129, ((7R)-7-amino-2-azabicyclo[2.2.1]heptan-2-yl)(2-(1-(cyclopropylmethyl)-7-(furan-3-yl)-1H-indol-2-yl)-7-methoxy-1-methyl-1H-benzo[d]imidazol-5-yl)methanone] was 194 nM.
Under setting [1], `COc1cc(C(=O)N2C[C@H]3CC[C@@H]2[C@@H]3N)cc2nc(-c3cc4cccc(CCN5CCOC5=O)c4n3CC3CC3)n(C)c12` [Example 23, 3-[2-(2-{5-[(1R,4R,7R)-7-amino-2-azabicyclo[2.2.1]heptane-2-carbonyl]-7-methoxy-1-methyl-1H-1,3-benzodiazol-2-yl}-1-(cyclopropylmethyl)-1H-indol-7-yl)ethyl]-1,3-oxazolidin-2-one] registered an IC50 of 120 nM.
On the same count and under the same terms, the value for `COCCC(=O)N1CCC(c2cccc3cc(-c4nc5cc(C(=O)N6C[C@H]7CC[C@@H]6[C@@H]7N)cc(OC)c5n4C)n(CC4CC4)c23)CC1` [Example 236, 1-(4-(2-(5-((1R,4R,7R)-7-amino-2-azabicyclo[2.2.1]heptane-2-carbonyl)-7-methoxy-1-methyl-1H-benzo[d]imidazol-2-yl)-1-(cyclopropylmethyl)-1H-indol-7-yl)piperidin-1-yl)-3-methoxypropan-1-one] was 57 nM; that for `COc1cc(C(=O)N2C[C@H]3CC[C@@H]2[C@@H]3N)cc2nc(-c3cc4cccc(-c5cn(CC(C)(C)O)nc5C)c4n3CC3CC3)n(C)c12` [Example 139, ((1R,4R,7R)-7-amino-2-azabicyclo[2.2.1]heptan-2-yl)(2-(1-(cyclopropylmethyl)-7-(1-(2-hydroxy-2-methylpropyl)-3-methyl-1H-pyrazol-4-yl)-1H-indol-2-yl)-7-methoxy-1-methyl-1H-benzo[d]imidazol-5-yl)methanone] was 180 nM; that for `COc1cc(C(=O)N2C[C@H]3CC[C@@H]2[C@@H]3N)cc2nc(-c3cc4cccc(C5CN(C(=O)Cc6nnn[nH]6)C5)c4n3CC3CC3)n(C)c12` [Example 81, 1-[3-(2-{5-[(1R,4R,7R)-7-amino-2-azabicyclo[2.2.1]heptane-2-carbonyl]-7-methoxy-1-methyl-1H-1,3-benzodiazol-2-yl}-1-(cyclopropylmethyl)-1H-indol-7-yl)azetidin-1-yl]-2-(1H-1,2,3,4-tetrazol-5-yl)ethan-1-one] was 16 nM.
For `COc1cc(C(=O)N2C[C@H]3CC[C@@H]2[C@@H]3N)cc2nc(-c3cc4cccc(C5CCCN(C(N)=O)C5)c4n3CC3CC3)n(C)c12` (stereo partly drawn) [Example 39, 3-(2-{5-[(1R,4R,7R)-7-amino-2-azabicyclo[2.2.1]heptane-2-carbonyl]-7-methoxy-1-methyl-1H-1,3-benzodiazol-2-yl}-1-(cyclopropylmethyl)-1H-indol-7-yl)piperidine-1-carboxamide], under setting [1], the IC50 amounted to 51 nM.
With `COc1cc(C(=O)N2C[C@H]3CC[C@@H]2[C@@H]3N)cc2nc(-c3cc4cccc(C5CC(N)C5)c4n3CC3CC3)n(C)c12` (stereo partly drawn) [Example 9, (1R,4R,7R)-2-{2-[7-(3-aminocyclobutyl)-1-(cyclopropylmethyl)-1H-indol-2-yl]-7-methoxy-1-methyl-1H-1,3-benzodiazole-5-carbonyl}-2-azabicyclo[2.2.1]heptan-7-amine], the half-maximal inhibitory concentration (IC50) under setting [1] was found to be 40 nM.
`COc1cc(C(=O)N2C[C@H]3CC[C@@H]2[C@@H]3N)cc2nc(-c3cc4cccc(C5CCN(C(=O)N(C)C)CC5)c4n3CC3CC3)n(C)c12` [Example 188, 4-(2-(5-((1R,4R,7R)-7-amino-2-azabicyclo[2.2.1]heptane-2-carbonyl)-7-methoxy-1-methyl-1H-benzo[d]imidazol-2-yl)-1-(cyclopropylmethyl)-1H-indol-7-yl)-N,N-dimethylpiperidine-1-carboxamide]: the concentration for half-maximal inhibition (IC50) under setting [2] is 27 nM.
The same measure, in the same setting: the value for `COc1cc(C(=O)N2C[C@H]3CC[C@@H]2[C@@H]3N)cc2nc(-c3cc4cccc(C#N)c4n3CC3CC3)n(C)c12` [Example 183, 2-(5-((1R,4R,7R)-7-amino-2-azabicyclo[2.2.1]heptane-2-carbonyl)-7-methoxy-1-methyl-1H-benzo[d]imidazol-2-yl)-1-(cyclopropylmethyl)-1H-indole-7-carbonitrile] was 128 nM.
The same measure, in the same setting: with `CCOP(=O)(OCC)c1cccc2cc(-c3nc4cc(C(=O)N5C[C@H]6CC[C@@H]5[C@@H]6N)cc(OC)c4n3C)n(CC3CC3)c12` [Example 107, diethyl (2-{5-[(1R,4R,7R)-7-amino-2-azabicyclo[2.2.1]heptane-2-carbonyl]-7-methoxy-1-methyl-1H-1,3-benzodiazol-2-yl}-1-(cyclopropylmethyl)-1H-indol-7-yl)phosphonate] the figure was 86 nM.
`COc1cc(C(=O)N2C[C@H]3CC[C@@H]2[C@@H]3N)cc2nc(-c3cc4cccc(C5CN(C(=O)Cc6cnccn6)C5)c4n3CC3CC3)n(C)c12` [Example 76, 1-[3-(2-{5-[(1R,4R,7R)-7-amino-2-azabicyclo[2.2.1]heptane-2-carbonyl]-7-methoxy-1-methyl-1H-1,3-benzodiazol-2-yl}-1-(cyclopropylmethyl)-1H-indol-7-yl)azetidin-1-yl]-2-(pyrazin-2-yl)ethan-1-one] displayed an IC50 under setting [1] of 19 nM.
In turn, `COc1cc(C(=O)N2C[C@H]3CC[C@@H]2[C@@H]3N)cc2nc(-c3cc4cccc(Cl)c4n3CC3CC3)n(C)c12` [Example 145, ((1R,4R,7R)-7-amino-2-azabicyclo[2.2.1]heptan-2-yl)(2-(7-chloro-1-(cyclopropylmethyl)-1H-indol-2-yl)-7-methoxy-1-methyl-1H-benzo[d]imidazol-5-yl)methanone] showed an IC50 under setting [1] of 123 nM.
